Values joined by “and” are separate entries in the source; they are usually repeats but may differ in a detail not shown here. Equal values may be shown once. Inconclusive results and toxic doses are left out.
Test system: B6C3F1 mice, ip Sarcoma M5076, median survival T/C
Experiment: NCI In Vivo Anticancer Drug Screen. Data for tumor model Sarcoma M5076 (intraperitoneal) in B6C3F1 mice
Conditions: endpoint: median survival time, schedule: Q04DX004 (ip), higher = longer survival
Procedure, shortened: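 Tumour cells were transplanted into mice, compound or vehicle was given, survival of both groups was followed, and the treated figure was expressed over the control figure.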

[1] = dose: 6.25 mg/kg/injection, vehicle: water
[2] = dose: 12.5 mg/kg/injection, vehicle: water
[3] = dose: 50.0 mg/kg/injection, vehicle: water
[4] = dose: 100.0 mg/kg/injection, vehicle: water
[5] = dose: 12.5 mg/kg/injection, vehicle: saline
[6] = dose: 25.0 mg/kg/injection, vehicle: saline
[7] = dose: 50.0 mg/kg/injection, vehicle: saline
[8] = dose: 37.5 mg/kg/injection, vehicle: saline with Tween-80
[9] = dose: 75.0 mg/kg/injection, vehicle: saline with Tween-80
[10] = dose: 150.0 mg/kg/injection, vehicle: saline with Tween-80
[11] = dose: 300.0 mg/kg/injection, vehicle: saline with Tween-80
[12] = dose: 600.0 mg/kg/injection, vehicle: saline with Tween-80
[13] = dose: 50.0 mg/kg/injection, vehicle: saline with Tween-80
[14] = dose: 100.0 mg/kg/injection, vehicle: saline with Tween-80

## COc1ccc2c(c1)-c1nn(CCCN(C)C)c3ccc([N+](=O)[O-])c(c13)N2
[1]
  T/C: 118 % of control
[2]
  T/C: 120 % of control
[3]
  T/C: 156 % of control and 170 % of control
[4]
  T/C: 96 % of control

## CC1(C)N=C(N)N=C(N)N1c1ccc(CCCCc2ccc(S(=O)(=O)F)cc2Cl)c(Cl)c1
dose: 15.0 mg/kg/injection, vehicle: Klucel (hydroxypropylcellulose) (HPC)
  T/C: 204 % of control
dose: 30.0 mg/kg/injection, vehicle: Klucel (hydroxypropylcellulose) (HPC)
  T/C: 186 % of control
dose: 60.0 mg/kg/injection, vehicle: Klucel (hydroxypropylcellulose) (HPC)
  T/C: 270 % of control
dose: 120.0 mg/kg/injection, vehicle: Klucel (hydroxypropylcellulose) (HPC)
  T/C: 270 % of control
dose: 240.0 mg/kg/injection, vehicle: Klucel (hydroxypropylcellulose) (HPC)
  T/C: 270 % of control

## C1CCC(NC2CCCCC2)CC1
dose: 75.0 mg/kg/injection, vehicle: saline
  T/C: 103 % of control
dose: 150.0 mg/kg/injection, vehicle: saline
  T/C: 103 % of control
dose: 300.0 mg/kg/injection, vehicle: saline
  T/C: 100 % of control

## O=C(NCc1ccccc1)C1C(=O)C(=O)N(Cc2ccccc2)C1=O (configuration not stated)
dose: 50.0 mg/kg/injection, vehicle: Klucel (hydroxypropylcellulose) (HPC)
  T/C: 92 % of control
dose: 100.0 mg/kg/injection, vehicle: Klucel (hydroxypropylcellulose) (HPC)
  T/C: 102 % of control
dose: 200.0 mg/kg/injection, vehicle: Klucel (hydroxypropylcellulose) (HPC)
  T/C: 100 % of control
dose: 400.0 mg/kg/injection, vehicle: Klucel (hydroxypropylcellulose) (HPC)
  T/C: 100 % of control
dose: 800.0 mg/kg/injection, vehicle: Klucel (hydroxypropylcellulose) (HPC)
  T/C: 96 % of control

## CCOC(=O)Nc1cc2c(c(N)n1)N=C(c1ccc3ccccc3c1)CN2
dose: 3.75 mg/kg/injection, vehicle: saline with Tween-80
  T/C: 110 % of control
dose: 7.5 mg/kg/injection, vehicle: saline with Tween-80
  T/C: 108 % of control
dose: 15.0 mg/kg/injection, vehicle: saline with Tween-80
  T/C: 120 % of control
dose: 30.0 mg/kg/injection, vehicle: saline with Tween-80
  T/C: 111 % of control

## OCCN1CCN(CC/C=C2/c3ccccc3Sc3ccc(C(F)(F)F)cc32)CC1
dose: 6.25 mg/kg/injection, vehicle: saline
  T/C: 108 % of control
[5]
  T/C: 100 % of control
[6]
  T/C: 108 % of control
[7]
  T/C: 112 % of control

## c1ccc2[nH]c(CN(CCN(Cc3nc4ccccc4[nH]3)Cc3nc4ccccc4[nH]3)Cc3nc4ccccc4[nH]3)nc2c1
dose: 3.12 mg/kg/injection, vehicle: other
  T/C: 103 % of control
dose: 6.25 mg/kg/injection, vehicle: other
  T/C: 108 % of control
dose: 12.5 mg/kg/injection, vehicle: other
  T/C: 100 % of control

## CC(=O)N1CN=C2Sc3ccccc3N2C1
dose: 18.75 mg/kg/injection, vehicle: Klucel (hydroxypropylcellulose) (HPC)
  T/C: 102 % of control
dose: 37.5 mg/kg/injection, vehicle: Klucel (hydroxypropylcellulose) (HPC)
  T/C: 111 % of control
dose: 75.0 mg/kg/injection, vehicle: Klucel (hydroxypropylcellulose) (HPC)
  T/C: 103 % of control
dose: 150.0 mg/kg/injection, vehicle: Klucel (hydroxypropylcellulose) (HPC)
  T/C: 102 % of control

## CCN(CC)CCn1[nH]c2c3ccc(=O)cc3sc3c(NCCN)ccc1c32
dose: 3.12 mg/kg/injection, vehicle: water
  T/C: 194 % of control
[1]
  T/C: 155 % of control and 163 % of control and 200 % of control
[2]
  T/C: 178 % of control and 201 % of control and 239 % of control

## Nc1nc(=O)nc2[nH]c3c4cccc5cccc(c3nc12)c54
[8]
  T/C: 101 % of control
[9]
  T/C: 95 % of control
[10]
  T/C: 98 % of control
[11]
  T/C: 90 % of control
[12]
  T/C: 94 % of control

## NC(=O)c1ccc[n+](Cc2c(Cl)cccc2Cl)c1
[5]
  T/C: 100 % of control
[6]
  T/C: 99 % of control
[7]
  T/C: 100 % of control
dose: 100.0 mg/kg/injection, vehicle: saline
  T/C: 96 % of control

## CC1CC12OC(=O)N(c1cc(Cl)cc(Cl)c1)C2=O (configuration not stated)
dose: 37.5 mg/kg/injection, vehicle: saline + Tween-80 + alcohol
  T/C: 101 % of control
dose: 75.0 mg/kg/injection, vehicle: saline + Tween-80 + alcohol
  T/C: 99 % of control
dose: 150.0 mg/kg/injection, vehicle: saline + Tween-80 + alcohol
  T/C: 99 % of control
dose: 300.0 mg/kg/injection, vehicle: saline + Tween-80 + alcohol
  T/C: 95 % of control
dose: 600.0 mg/kg/injection, vehicle: saline + Tween-80 + alcohol
  T/C: 91 % of control

## C=CC(=O)NCNC(=O)C=C
dose: 50.0 mg/kg/injection, vehicle: suspension in saline
  T/C: 99 % of control
dose: 100.0 mg/kg/injection, vehicle: suspension in saline
  T/C: 115 % of control

## COc1cc2c(c(OC)c1O)-c1ccc(OC)c(=O)cc1[C@@H](NC(=O)C(F)(F)F)CC2
dose: 0.9 mg/kg/injection, vehicle: Klucel (hydroxypropylcellulose) (HPC)
  T/C: 110 % of control
dose: 1.55 mg/kg/injection, vehicle: Klucel (hydroxypropylcellulose) (HPC)
  T/C: 124 % of control
dose: 2.59 mg/kg/injection, vehicle: Klucel (hydroxypropylcellulose) (HPC)
  T/C: 122 % of control
dose: 4.32 mg/kg/injection, vehicle: Klucel (hydroxypropylcellulose) (HPC)
  T/C: 124 % of control
dose: 7.2 mg/kg/injection, vehicle: Klucel (hydroxypropylcellulose) (HPC)
  T/C: 124 % of control

## C=COC(=O)C(Cc1ccccc1)NC(=O)OCc1ccccc1 (configuration not stated)
[9]
  T/C: 91 % of control
[10]
  T/C: 111 % of control
[11]
  T/C: 113 % of control
[12]
  T/C: 91 % of control
dose: 1200.0 mg/kg/injection, vehicle: saline with Tween-80
  T/C: 88 % of control

## CN(C)c1cc2c(nn1)Nc1ccccc1S2
[13]
  T/C: 88 % of control
[14]
  T/C: 88 % of control
dose: 200.0 mg/kg/injection, vehicle: saline with Tween-80
  T/C: 97 % of control
dose: 800.0 mg/kg/injection, vehicle: saline with Tween-80
  T/C: 90 % of control

## c1ccc(P(CCNCCP(c2ccccc2)c2ccccc2)c2ccccc2)cc1
dose: 25.0 mg/kg/injection, vehicle: saline with Tween-80
  T/C: 88 % of control
[13]
  T/C: 92 % of control
[14]
  T/C: 90 % of control

## CC(O)(CSc1ccccc1)CSc1ccccc1 (tested in a mixture with another compound)
dose: 18.75 mg/kg/injection, vehicle: saline with Tween-80
  T/C: 104 % of control
[8]
  T/C: 98 % of control
[9]
  T/C: 100 % of control
[10]
  T/C: 101 % of control
[11]
  T/C: 100 % of control

## O=C(c1ncccc1O)N1CCCCC1
dose: 40.63 mg/kg/injection, vehicle: distilled water + Tween-80
  T/C: 86 % of control
dose: 81.25 mg/kg/injection, vehicle: distilled water + Tween-80
  T/C: 103 % of control
dose: 325.0 mg/kg/injection, vehicle: distilled water + Tween-80
  T/C: 97 % of control
dose: 650.0 mg/kg/injection, vehicle: distilled water + Tween-80
  T/C: 90 % of control

## O=C1NC(=O)C23CCCCc4cccc(c42)C(=O)C13 (configuration not stated)
dose: 25.0 mg/kg/injection, vehicle: water
  T/C: 103 % of control
[3]
  T/C: 103 % of control
[4]
  T/C: 107 % of control
dose: 200.0 mg/kg/injection, vehicle: water
  T/C: 103 % of control
dose: 400.0 mg/kg/injection, vehicle: water
  T/C: 106 % of control

Reference: PubChem BioAssay AID292 (DTP/NCI, 2004)
